Reference: article PMC6345825, “Crystal structure of the plant symporter STP10 illuminates sugar uptake mechanism in monosaccharide transporter superfamily” (Nature Communications, 2019)
Values belong to the compound of their own block, whether it stands above or below them.

Tests used:
STP10 [1] = biological target: T1, STP10 (Arabidopsis thaliana, UniProt Q9LT15); test: [3H]-2-deoxy-D-glucose uptake in yeast EBY-WV4000; type: cell-based; conditions: pH 5.0; 30 °C; labelled compound
T1 construct: full length 514 residues; S. cerevisiae expression, C-terminal thrombin site and His10 tag, tag cut with thrombin for structure (model residues 21-507, monomer); STP10 gene subcloned for Xenopus oocyte and yeast EBY-WV4000 uptake
T1 sequence (Q9LT15 1-514): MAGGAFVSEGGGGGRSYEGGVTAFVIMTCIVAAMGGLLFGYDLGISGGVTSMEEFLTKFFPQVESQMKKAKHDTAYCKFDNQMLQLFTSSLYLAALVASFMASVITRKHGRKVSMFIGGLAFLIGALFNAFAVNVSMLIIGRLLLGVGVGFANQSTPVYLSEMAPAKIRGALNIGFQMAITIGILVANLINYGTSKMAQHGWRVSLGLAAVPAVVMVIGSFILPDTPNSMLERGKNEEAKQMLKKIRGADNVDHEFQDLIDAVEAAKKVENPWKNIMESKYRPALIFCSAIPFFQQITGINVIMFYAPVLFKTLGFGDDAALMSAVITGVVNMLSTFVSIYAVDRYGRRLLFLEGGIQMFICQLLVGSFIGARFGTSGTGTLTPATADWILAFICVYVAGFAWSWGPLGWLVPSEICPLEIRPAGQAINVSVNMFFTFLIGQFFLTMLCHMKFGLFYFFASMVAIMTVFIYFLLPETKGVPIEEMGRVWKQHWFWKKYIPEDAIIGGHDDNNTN

STP10 [2] = biological target: T1, STP10; test: competition with [3H]-D-glucose uptake in yeast EBY-WV4000; type: cell-based; conditions: pH 5.0; 30 °C; 250 µM competitor against 10 µM D-glucose
STP10 [3] = biological target: T1, STP10; test: X-ray crystal structure, […] Å; conditions: central binding site; outward occluded state; lipidic cubic phase, pH 4.5
STP10 [4] = biological target: T1, STP10; test: isothermal titration calorimetry, purified protein, one-site model; conditions: pH 5.5; 20 °C; 0.03% DDM; read-out: apparent Kd

SMILES: OC[C@H]1OC(O)C[C@@H](O)[C@@H]1O (some centres unmarked) [2-deoxyglucose]
[3H]-2-deoxy-D-glucose uptake in yeast EBY-WV4000 (STP10 [1]): The protein can transport the non-metabolized glucose analog 2-deoxyglucose

SMILES: OC[C@H]1OC(O)[C@H](O)[C@@H](O)[C@H]1O (some centres unmarked) [galactose]
competition (STP10 [2]): Competition assays using radioactively labeled glucose confirm galactose and mannose as potential substrates

X-ray crystal structure, 2.4 Å (STP10 [3]): contains unambiguous density for glucose | Kd (STP10 [4]): 3.2 µM
SMILES: OC[C@H]1OC(O)[C@H](O)[C@@H](O)[C@@H]1O (some centres unmarked) [glucose]

SMILES: OC[C@H]1OC(O)[C@@H](O)[C@@H](O)[C@@H]1O (some centres unmarked) [mannose]
competition (STP10 [2]): Competition assays using radioactively labeled glucose confirm galactose and mannose as potential substrates
